Test results from the supplement of paper PMC13380429.

Legend:
Conditions in all cases: 72 h
[1] = system: Caco-2; assay: cell viability relative to DMSO; higher = less toxic
[2] = system: HepG2; assay: as above
[3] = system: U2OS; assay: as above
[4] = system: Vero E6; assay: as above
[5] = system: Caco-2; assay: relative viability EC50 (midpoint between 100% and the lowest measured viability); higher = less toxic
[6] = system: HepG2; assay: as above
[7] = system: U2OS; assay: as above
[8] = system: Vero E6; assay: as above
[9] = system: Caco-2; assay: drug sensitivity score (DSS) for viability; higher = more toxic; extreme values may be limits of the assay
[10] = system: HepG2; assay: as above
[11] = system: U2OS; assay: as above
[12] = system: Vero E6; assay: as above
[13] = system: Calu-3; assay: cell viability relative to DMSO; higher = less toxic
[14] = system: Calu-3; assay: drug sensitivity score (DSS) for viability; higher = more toxic; extreme values may be limits of the assay
[15] = system: Calu-3; assay: relative viability EC50 (midpoint between 100% and the lowest measured viability); higher = less toxic

Compound	cell viability ([1]; 1 nM)	cell viability ([1]; 10 nM)	cell viability ([1]; 100 nM)	cell viability ([1]; 1000 nM)	cell viability ([1]; 10000 nM)	cell viability ([2]; 1 nM)	cell viability ([2]; 10 nM)	cell viability ([2]; 100 nM)	cell viability ([2]; 1000 nM)	cell viability ([2]; 10000 nM)	cell viability ([3]; 1 nM)	cell viability ([3]; 10 nM)	cell viability ([3]; 100 nM)	cell viability ([3]; 1000 nM)	cell viability ([3]; 10000 nM)	cell viability ([4]; 1 nM)	cell viability ([4]; 10 nM)	cell viability ([4]; 100 nM)	cell viability ([4]; 1000 nM)	cell viability ([4]; 10000 nM)	relative viability EC50 [5]	relative viability EC50 [6]	relative viability EC50 [7]	relative viability EC50 [8]	drug sensitivity score [9]	drug sensitivity score [10]	drug sensitivity score [11]	drug sensitivity score [12]	cell viability ([13]; 1 nM)	cell viability ([13]; 10 nM)	cell viability ([13]; 100 nM)	cell viability ([13]; 1000 nM)	cell viability ([13]; 10000 nM)	drug sensitivity score [14]	relative viability EC50 [15]
C=CC(C)(O)CCC=C(C)C (stereo not drawn) [linalool]	110%	99.2%	99.2%	93.7%	99.2%	95.5%	102%	96.5%	100%	95.2%	103%	95.7%	97.4%	95%	97.9%	101%	104%	96.3%	102%	98.7%	> 10 µM	> 10 µM	> 10 µM	> 10 µM	0	0	0	0							
CN(CCCN1c2ccccc2CCc2ccccc21)CC(=O)c1ccc(Cl)cc1 [lofepramine]	103%	107%	101%	94.9%	92%	105%	105%	102%	96.9%	106%						99%	102%	97.2%	101%	101%	> 10 µM	> 10 µM		> 10 µM	0	0		0							
Nc1ccc2cc3ccc(N)cc3nc2c1 [proflavine-hemisulfate]	100%	88.4%	99%	105%	49.3%	96.5%	103%	92.7%	76.2%	2%						94.6%	100%	90.7%	89.4%	35.8%	3.6 µM	1.57 µM		1.9 µM	2.3	9.1		5.3	89.2%	95.9%	103%	103%	62.6%	1.6	
CC(C)C[C@H](NC(=O)[C@@H]1CCCN1)C(=O)NCC(N)=O [prolylleucylglycinamide]	95%	95.1%	98.1%	96%	96.6%	109%	107%	107%	99.2%	107%						102%	105%	102%	103%	98.2%	> 10 µM	> 10 µM		> 10 µM	0	0		0	97.1%	96.3%	99.4%	106%	104%	0	> 10 µM
CN1CCCN=C1/C=C/c1cccs1 [pyrantel-pamoate]	93.3%	94.8%	98.8%	96%	100%	97.4%	106%	103%	104%	92.6%	99.6%	96.9%	99.1%	95.3%	101%	107%	99.9%	96.4%	101%	99.4%	> 10 µM	> 10 µM	> 10 µM	> 10 µM	0	0	0	0							
CCN(CC)CCNC(=O)c1cc(S(C)(=O)=O)ccc1OC [tiapride]	104%	93.5%	95.9%	100%	101%	102%	103%	94.2%	103%	97.5%						99.9%	100%	103%	99.5%	104%	> 10 µM	> 10 µM		> 10 µM	0	0		0	97.5%	89.2%	101%	106%	100%	0	> 10 µM
C/C(=C\CNc1ncnc2[nH]cnc12)CO [zeatin]	94.1%	104%	88.1%	92.5%	101%	94.7%	92.9%	108%	102%	110%	96.8%	99.4%	95.4%	98.9%	102%	95.7%	99.4%	97%	100%	107%	> 10 µM	> 10 µM	> 10 µM	> 10 µM	0	0	0	0							
